Laboratory results published in patent US6528484B1, “Insecticidal protein toxins from Photorhabdus” (priority 1993, dated 2003).
Where two headings read alike, the source gives them in different places. Where a SMILES comes first, the peptide text is derived from it. [ ]: non-standard residue; d: D form. The star is where a group is joined. Sta = CC(C)C[C@H](N)[C@@H](O)CC(=O)O; Isovaleryl = CC(C)CC(=O)*

Legend:
[1] = test system: protease(s) found in the Photorhabdus broth; assay type: biochemical, Photorhabdus luminescens; conditions: for Corrected Flu. Units (Fluorescence Units - background) / Percent Inhibition relative to protease activity at pH 8.0: pH 8
Experimental: Protease Inhibition and Classification Assays: Protease assays were performed using FITC-casein dissolved in water as substrate (0.08% final assay concentration). Proteolysis reactions were performed at 25° C. for 1 h in the appropriate buffer with 25 μl of Photorhabdus broth (150 μl total reaction volume). Samples were also assayed in the presence and absence of dithiothreitol. After incubation, an equal volume of 12% trichloroacetic acid was added to precipitate undigested protein. Following precipitation for 0.5 h and subsequent centrifugation, 100 μl of the supernatant was placed into a 96-well microtiter plate and the pH of the solution was adjusted by addition of an equal volume of 4N NaOH. Proteolysis was then quantitated using a Fluoroskan II fluorometric plate reader at excitation and emission wavelengths of 485 and 538 nm, respectively. Protease activity was tested over a range from pH 5.0-10.0 in 0.5 units increments. The following buffers were used at 50 mM final concentration: sodium acetate (pH 5.0-6.5); Tris-HCL (pH 7.0-8.0); and bis-Tris propane (pH 8.5-10.0). […] The protease inhibitors used included E-64 (L-trans-expoxysaccinylleucylamido[4-,-guanidino]-butane), 3,4 dichloroisocoumarin, Leupeptin, pepstatin, amastatin, ethylenediaminetetraacetic acid (EDTA) and 1,10 phenanthroline.

[2] = test system: protease activity of three day W-14 crude broth; experiment: FITC-casein protease assay, three day W-14 crude broth; assay type: biochemical, Photorhabdus luminescens; conditions: inhibitor 0.5-1.0 mg/ml per reaction
Experimental: (§1) Activity assays of the different proteases in W-14 day three culture broth were performed using FITC-casein dissolved in water as substrate (0.02% final assay concentration). Proteolysis experiments were performed at 37° C. for 0-0.5 h in 0.1M Tris-HCl (pH 8.0) with different protein fractions in a total volume of 0.15 ml. Reactions were terminated by addition of an equal volume of 12% trichloroacetic acid (TCA) dissolved in water. After incubation at room temperature for 0.25 h, samples were centrifuged at […] for 0.25 h and 0.10 ml aliquots were removed and placed into 96-well microtiter plates. The solution was then neutralized by the addition of an equal volume of 2 N sodium hydroxide, followed by quantitation using a Fluoroskan II fluorometric plate reader with excitation and emission wavelengths of 485 and 538 nm, respectively. Activity measurements were performed using FITC-Casein with different protease concentrations at 37° C. for 0-10 min. A unit of activity was arbitrarily defined as the amount of enzyme needed to produce 1000 fluorescent units/min and specific activity was defined as units/mg of protease.
(§2) Inhibition studies were performed using two zinc-metalloprotease inhibitors; 1,10 phenanthroline and N-(a-rhamnopyranosyloxyhydroxyphosphinyl)-Leu-Trp(phosphoramidon) with stock solutions of the inhibitors dissolved in 100% ethanol and water, respectively. […]

[3] = test system: 41/38 kDa protease; experiment: Inhibition of purified 41/38 kDa protease; assay type: biochemical, Photorhabdus luminescens
Experimental: as §1, §2

[4] = test system: 58 kDa protease; experiment: Inhibition of purified 58 kDa protease; assay type: biochemical, Photorhabdus luminescens
Experimental: as §1, §2

[5] = test system: neonate Diabrotica undecimpunctata howardi (Southern corn rootworm, SCR); experiment: SCR bioassay on artificial diet (Example 13; used in Examples 14-16); assay type: in vivo
[6] = inhibitor 0.5 μg/μl final concentration, Day 1 production broth

O[C@H](CS)[C@H](O)CS (racemic) [DTT, dithiothreitol]
effect on protease activity ([1]; samples assayed in presence and absence of dithiothreitol): did not have any effect

CC(C)C[C@H](NC(=O)[C@H]1O[C@@H]1C(=O)O)C(=O)NCCCCN=C(N)N (relative stereo) [Strain E-64, L-trans-expoxysaccinylleucylamido[4-,-guanidino]-butane]
Corrected Flu. Units (Fluorescence Units - background) [1]: 14259 Fluorescence Units | Percent Inhibition relative to protease activity at pH 8.0 [1]: 0%

c1cnc2c(c1)ccc1cccnc12 [1,10 Phenanthroline, 1,10 phenanthroline]
effect on protease activity of three day W-14 crude broth [2]: complete elimination of all protease activity | inhibition of all protease activity of crude broth ([1]; final concentration of 50 μg): complete inhibition | IC50 ([1]; in 100 μl of a 2 mg/ml crude broth solution): 5 µg | Corrected Flu. Units (Fluorescence Units - background) [1, 6]: 15 Fluorescence Units | Percent Inhibition relative to protease activity at pH 8.0 [1, 6]: 99% | inhibition of purified 41/38 kDa protease [3]: completely inhibited | inhibition of purified 58 kDa protease [4]: completely inhibited

O=c1oc(Cl)c(Cl)c2ccccc12 [3,4 Dichloroisocoumarin, 3,4 dichloroisocoumarin]
Corrected Flu. Units (Fluorescence Units - background) [1, 6]: 7956 Fluorescence Units | Percent Inhibition relative to protease activity at pH 8.0 [1, 6]: 39%

CC(C)C[C@@H](N)[C@H](O)C(=O)N[C@H](C(=O)N[C@H](C(=O)N[C@@H](CC(=O)O)C(=O)O)C(C)C)C(C)C [Amastatin, amastatin]
Corrected Flu. Units (Fluorescence Units - background) [1, 6]: 12474 Fluorescence Units | Percent Inhibition relative to protease activity at pH 8.0 [1, 6]: 4%

CC(=O)N[C@@H](CC(C)C)C(=O)N[C@@H](CC(C)C)C(=O)N[C@H](C=O)CCCNC(=N)N [Leupeptin]
Corrected Flu. Units (Fluorescence Units - background) [1, 6]: 13074 Fluorescence Units | Percent Inhibition relative to protease activity at pH 8.0 [1, 6]: 0%

CC(C)CC(=O)N[C@H](C(=O)N[C@H](C(=O)N[C@@H](CC(C)C)[C@@H](O)CC(=O)N[C@@H](C)C(=O)N[C@@H](CC(C)C)[C@@H](O)CC(=O)O)C(C)C)C(C)C [Pepstatin, pepstatin] (Isovaleryl-VV[Sta]A[Sta]-OH)
Corrected Flu. Units (Fluorescence Units - background) [1, 6]: 13441 Fluorescence Units | Percent Inhibition relative to protease activity at pH 8.0 [1, 6]: 0%

CC(C)C[C@H](NP(=O)(O)O[C@@H]1O[C@@H](C)[C@H](O)[C@@H](O)[C@H]1O)C(=O)N[C@@H](Cc1c[nH]c2ccccc12)C(=O)O [phosphoramidon, N-(a-rhamnopyranosyloxyhydroxyphosphinyl)-Leu-Trp]
reduction of protease activity of three day W-14 crude broth ([2]; not further reduced with additional inhibitor): about 56% | inhibition of purified 41/38 kDa protease [3]: inhibited | inhibition of purified 58 kDa protease [4]: insensitive

TcbA: peptide TcbA, SEQ ID NO:12; in Table 24 bioassay lines the TcbA-enriched toxin B complex fraction of W-14 broth
SCR Weight (mg/insect), average weight of live insect after 5 days on diet ([5]; 38 kDa protease treatment): 0.1 mg/insect | LD50 (μg protein) ([5]; 38 kDa protease treatment, 37° C., 90 min): 0.52 μg protein | LD50 (μg protein) ([5]; Control (protease omitted)): 2.1 μg protein | SCR Weight (mg/insect), average weight of live insect after 5 days on diet ([5]; Control (protease omitted)): 0.2 mg/insect | fold increase of SCR insecticidal activity by 38 kDa protease treatment ([5]; comparison of activity in several dilutions): 3 to 4 fold

toxin A: 860 kDa complex purified from activity peak A; major peptides TcdAii and TcdAiii
activity against Southern corn root worm ([5]; in vivo): active

toxin B: 860 kDa complex purified from activity peak B; major peptides TcbAii and TcbAiii (or intact TcbA)
LD50 against SCR after SCR gut content treatment ([5]; 40 μg toxin with 50 μl SCR gut content, 37° C. overnight): about 70 ng | fold increase of SCR activity by SCR gut content treatment ([5]; LD50 treated against untreated): 10 fold | LD50 against SCR ([5]; in vivo): around 700 ng | activity against Southern corn root worm ([5]; in vivo): active | toxin activity after protease K treatment ([5]; separate experiment): completely eliminated toxin activity
